# Laboratory results as given in patent publication US7932290B2, “Method for the treatment of metabolic disorders” (Wellstat Biologics Corporation, priority 2003, dated 2011).
# Tests used:
# db/db mice = experiment: Antidiabetic effects in db/db mice, Example C (17 days daily oral dosing); format: in vivo, mouse
# Source text: C57BL/Ksola (db/db) mice have a defect in leptin signaling, leading to hyperphagia, obesity and diabetes. Moreover, unlike ob/ob mice on a C57BL/6J background, db/db mice on a C57BLKS background undergo failure of their insulin-producing pancreatic islet cells, resulting in progression from hyperinsulinemia (associated with peripheral insulin resistance) to hypoinsulinemic diabetes.
# Male obese (db/db homozygote) C57BL/Ksola mice approximately 8 weeks of age, were obtained from Jackson Labs (Bar Harbor, Me.) and sorted into groups of 7 animals each animals such that the body weights (40-45 g) and serum glucose levels (≧300 mg/dl in fed state) were similar between groups. A minimum of 7 days was allowed for adaptation after arrival. All animals were maintained under controlled temperature (23° C.), relative humidity (50±5%) and light (7:00-19:00), and allowed free access to standard chow (Formulab Diet 5008, Quality Lab Products, Elkridge, Md.) and water.
# Treatment cohorts were given daily oral doses of vehicle (1% hydroxypropylmethylcellulose), Compounds BI, CF, CG, or phenylacetate for 17 days. At the end of the treatment period, blood samples were collected and serum glucose and triglycerides were measured.
# [1] = biological target: T1, Mouse PPARα LBD fusion protein (Mus musculus, UniProt P23204); experiment: Transcription activation potential, GAL4 luciferase reporter in C3A cells; format: cell-based
# T1 sequence (P23204 239-466): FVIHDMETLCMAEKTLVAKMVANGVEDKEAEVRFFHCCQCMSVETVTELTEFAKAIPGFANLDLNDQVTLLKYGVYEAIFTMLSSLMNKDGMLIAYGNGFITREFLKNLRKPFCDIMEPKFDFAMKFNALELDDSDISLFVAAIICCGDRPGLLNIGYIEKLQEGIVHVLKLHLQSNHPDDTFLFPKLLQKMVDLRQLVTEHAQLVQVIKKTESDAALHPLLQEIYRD
# Description: (§1) Cells were seeded in 24 well plates the day prior to transfection at 5×10^4−2×10^5 cells/well, depending upon cell type. Cells were transfected using Lipofectamine 2000 reagent from Invitrogen. A total of 0.8 μg DNA/well was added to 50 μL of Optimem Reduced Serum media (serum free; Gibco). Lipofectamine 2000 was added (2.5 μL/well) to another tube containing 50 μL of Optimem media. Plasmid DNA was added at a ratio of 4:3 (reporter:activator); where appropriate, salmon sperm DNA was substituted for activator expressing plasmid. The reporter plasmid used was pFR-Luc, which has the firefly luciferase gene under the control of a GAL4 UAS ([…]) containing promoter. The activator expressing plasmids contain yeast GAL4 DNA binding domain (dbd) fusion of either human PPARα ligand binding domain (LBD; a.a. 167-468) or human PPARγ LBD (a.a. 176-479). DNA constructs containing the mouse PPARα or PPARγ LBD fused to the GAL4 DNA binding domain were also used. The two solutions were incubated at room temperature for 5 min, and then combined. The combined solution was incubated at room temperature for approximately 30 min. Cells were washed once with PBS, and 100 μL of transfection mix added to each well. Plates were incubated at 37° C. in a 5% CO2 incubator for 4.5 hr, followed by aspiration of the transfection mix, with plates refed using EMEM complete media (supplemented with 10% FBS, 1× Glutamine). 24 hr post-transfection, plates were treated with the appropriate compounds in EMEM complete media, followed by washing once with PBS and addition of 100 μL 1× reporter lysis buffer/well (Promega) 24 hr after treatment. Plates went through one freeze/thaw cycle prior to analysis. Approximately 10 μL of lysate was added to 100 μL of firefly luciferase substrate, mixed by pipetting, and analyzed on a luminometer for 10 s using the integration function (relative luciferase units/RLU) or on a Microbeta Trilux (luciferase counts per second/LCPS). Each treatment was performed in triplicate, and in multiple, separate experiments.
# [2] = biological target: T2, Human PPARα LBD fusion protein (Homo sapiens, UniProt Q07869); experiment: as above; format: cell-based
# T2 construct: a.a; 167-468)
# T2 sequence (Q07869 167-468): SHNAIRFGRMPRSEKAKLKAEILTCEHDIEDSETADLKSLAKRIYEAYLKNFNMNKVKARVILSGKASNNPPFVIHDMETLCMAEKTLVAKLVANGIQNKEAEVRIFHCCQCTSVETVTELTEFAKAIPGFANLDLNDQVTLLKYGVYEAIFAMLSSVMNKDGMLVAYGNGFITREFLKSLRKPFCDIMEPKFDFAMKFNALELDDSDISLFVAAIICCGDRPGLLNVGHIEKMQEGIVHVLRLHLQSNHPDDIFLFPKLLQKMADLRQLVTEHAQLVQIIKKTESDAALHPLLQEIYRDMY
# Description: as §1
"transcription activation potential (luciferase) ± standard deviation ([1]; 1 μM, Table 20a)","transcription activation potential (luciferase) ± standard deviation ([1]; 3 μM, Table 20a)","transcription activation potential (luciferase) ± standard deviation ([1]; 10 μM, Table 20a)","transcription activation potential (luciferase) ± standard deviation ([1]; 30 μM, Table 20a)","transcription activation potential (luciferase) ± standard deviation ([1]; 100 μM, Table 20a)","transcription activation potential (luciferase) ± standard deviation ([1]; 100 μM, Table 21a)","transcription activation potential (luciferase) ± standard deviation ([1]; 200 μM, Table 20a)",transcription activation potential (luciferase) ± standard deviation ([2]; 1 μM),transcription activation potential (luciferase) ± standard deviation ([2]; 3 μM),transcription activation potential (luciferase) ± standard deviation ([2]; 10 μM),transcription activation potential (luciferase) ± standard deviation ([2]; 30 μM),transcription activation potential (luciferase) ± standard deviation ([2]; 100 μM),transcription activation potential (luciferase) ± standard deviation ([2]; 200 μM),"transcription activation potential (luciferase) ± standard deviation ([1]; 1 μM, Table 21a)","transcription activation potential (luciferase) ± standard deviation ([1]; 3 μM, Table 21a)","transcription activation potential (luciferase) ± standard deviation ([1]; 5 μM, Table 21a)","transcription activation potential (luciferase) ± standard deviation ([1]; 7 μM, Table 21a)","transcription activation potential (luciferase) ± standard deviation ([1]; 10 μM, Table 21a)",SMILES,Glucose mg/dL (±SEM) (db/db mice; 100 mg/kg daily oral),Triglycerides (db/db mice; 100 mg/kg daily oral),also measured
14.67 ± 1.08 LCPS,15.2 ± 2.78 LCPS,15.1 ± 3.78 LCPS,10.43 ± 1.81 LCPS,15.37 ± 6.21 LCPS,4421 ± 118 RLU,18.6 ± 11.66 LCPS,127.7 ± 7.1 LCPS,128 ± 70.7 LCPS,52.7 ± 8.2 LCPS,55.4 ± 16.2 LCPS,20.9 ± 13.1 LCPS,31.1 ± 29.4 LCPS,,,,,,"Cc1cccc(C)c1COc1cccc(C(=O)CCC(=O)O)c1 [Compound BI, 4-(3-(2,6-Dimethylbenzyloxy)phenyl)-4-oxobutyric acid]",472 ± 54 mg/dL,116 ± 4 mg/dL,Glucose mg/dL (±SEM) (db/db mice; 150 mg/kg daily oral): 348 ± 67 mg/dL; Triglycerides (db/db mice; 150 mg/kg daily oral): 90 ± 6 mg/dL
13.17 ± 7.84 LCPS,5.63 ± 0.42 LCPS,153.15 ± 24.4 LCPS,358.6 ± 5.23 LCPS,201.5 ± 50.84 LCPS,41037 ± 5401 RLU,106.77 ± 32.53 LCPS,37 ± 11.5 LCPS,47 ± 22.8 LCPS,19.9 ± 7.8 LCPS,40.2 ± 18.9 LCPS,19 ± 14.2 LCPS,12.9 ± 8.3 LCPS,2694 ± 159 RLU,4527 ± 740 RLU,7188 ± 1753 RLU,14325 ± 1032 RLU,16680 ± 2432 RLU,"Cc1cccc(C)c1COc1cccc(CC(=O)O)c1 [Compound CF, 3-(2,6-Dimethylbenzyloxy)phenylacetic acid]",391 ± 61 mg/dL,92 ± 6 mg/dL,"Glucose mg/dL (±SEM) (db/db mice; 30 mg/kg daily oral): 586 ± 31 mg/dL; Triglycerides (db/db mice; 30 mg/kg daily oral): 156 ± 20 mg/dL; Glucose mg/dL (±SEM) (db/db mice; 60 mg/kg daily oral): 604 ± 36 mg/dL; Triglycerides (db/db mice; 60 mg/kg daily oral): 120 ± 13 mg/dL; transcription activation potential (luciferase) ± standard deviation ([1]; 30 μM, Table 21a): 38105 ± 3133 RLU"
4.43 ± 2.25 LCPS,9.17 ± 3.72 LCPS,7.87 ± 0.7 LCPS,11.63 ± 5.01 LCPS,11.8 ± 8.95 LCPS,926 ± 1362 RLU,80.3 ± 2 LCPS,10.9 ± 11.6 LCPS,19.1 ± 6.1 LCPS,17.9 ± 5.2 LCPS,38.2 ± 21.1 LCPS,23.9 ± 5.3 LCPS,159.4 ± 29.6 LCPS,361 ± 398 RLU,706 ± 399 RLU,492 ± 160 RLU,652 ± 190 RLU,394 ± 84 RLU,"Cc1cccc(C)c1COc1cccc(C(=O)O)c1 [Compound CG, 3-(2,6-Dimethylbenzyloxy)benzoic acid]",753 ± 24 mg/dL,166 ± 14 mg/dL,"transcription activation potential (luciferase) ± standard deviation ([1]; 30 μM, Table 21a): 651 ± 643 RLU"
